The source of these data is patent US20240336624A1, “PARP INHIBITOR CONTAINING PIPERAZINE STRUCTURE, PREPARATION METHOD THEREFOR AND PHARMACEUTICAL USE THEREOF” (WIGEN BIOMEDICINE TECHNOLOGY (SHANGHAI) CO., LTD., priority 2021, published 2024).

Bounds are passed on as bounds.

The target in one experiment is PARP-1 enzyme (Homo sapiens, UniProt P09874). The experiment in a line: In vitro inhibition of activity of poly (ADP-ribose) polymerase [PARP-1 enzyme], histone-coated plate chemiluminescence. Conditions: class symbols; read-out: Inhibitory activity against PARP-1 (IC50). It is filed as biochemical. The protocol: Example 69. Experiment on In Vitro Inhibition of Activity of Poly (ADP-Ribose) Polymerase [PARP-1 Enzyme] with Compounds of the Present Invention
PARP-1 enzyme, sequence (P09874 whole entry): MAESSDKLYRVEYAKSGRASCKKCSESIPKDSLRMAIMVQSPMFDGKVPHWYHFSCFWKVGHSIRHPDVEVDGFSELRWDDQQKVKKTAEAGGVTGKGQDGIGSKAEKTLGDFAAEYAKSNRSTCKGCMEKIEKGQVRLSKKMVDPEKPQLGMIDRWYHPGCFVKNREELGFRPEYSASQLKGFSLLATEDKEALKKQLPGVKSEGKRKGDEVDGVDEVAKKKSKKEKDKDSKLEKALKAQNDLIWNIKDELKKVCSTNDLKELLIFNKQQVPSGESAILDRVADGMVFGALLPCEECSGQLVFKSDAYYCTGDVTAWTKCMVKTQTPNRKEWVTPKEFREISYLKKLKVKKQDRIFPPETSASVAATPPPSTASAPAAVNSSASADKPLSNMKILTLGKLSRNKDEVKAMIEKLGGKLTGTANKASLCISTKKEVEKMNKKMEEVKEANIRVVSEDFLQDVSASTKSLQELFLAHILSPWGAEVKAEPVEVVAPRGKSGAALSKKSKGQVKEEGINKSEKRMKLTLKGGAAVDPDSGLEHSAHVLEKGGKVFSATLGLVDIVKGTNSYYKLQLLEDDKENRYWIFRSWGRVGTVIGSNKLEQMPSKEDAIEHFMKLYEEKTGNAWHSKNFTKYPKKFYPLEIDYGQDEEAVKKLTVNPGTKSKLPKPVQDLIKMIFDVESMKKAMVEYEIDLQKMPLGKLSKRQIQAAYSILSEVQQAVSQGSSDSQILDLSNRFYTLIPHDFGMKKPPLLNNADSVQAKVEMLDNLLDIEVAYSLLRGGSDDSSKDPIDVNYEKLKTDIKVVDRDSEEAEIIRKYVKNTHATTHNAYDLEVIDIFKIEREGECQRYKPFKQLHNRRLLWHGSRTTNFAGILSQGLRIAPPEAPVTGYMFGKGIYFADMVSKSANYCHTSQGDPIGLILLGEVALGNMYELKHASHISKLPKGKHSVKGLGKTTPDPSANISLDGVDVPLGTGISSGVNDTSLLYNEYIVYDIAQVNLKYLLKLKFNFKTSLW
The histones were coated onto 384-well plates at 4° C. overnight, rinsed three times with a PBST buffer, and blocked at room temperature for 1 h. After 1 h, the histones were rinsed three more times with PBST, DMSO or a serially diluted compound, and a mixture containing PARP-1 enzymes and DNA was added, and the resulting mixture was incubated at 25° C. for 10 min. After 10 min NAD^+ was added to start the reaction. After reacting at room temperature for 60 min, the reaction solution was rinsed three times with PBST, and the level of poly/mono-ADP ribose on the histones was detected by the addition of a poly/mono-ADP ribose antibody conjugated with horseradish peroxidase ([…]). After incubation at room temperature for 1 h, HRP substrates ECL A and B were added, and Envision quantified chemiluminescence. The inhibition percentages and IC50 of the compounds were calculated compared to the control group DMSO.
Turning to `CCc1cc2ncc(CN3CCN(c4cnc(C(=O)NC)nc4)CC3)cc2[nH]c1=O` [Compound 2], the IC50 (usually the concentration that gives 50% inhibition) was at most 10 nM.
Consider `CCc1cc2ncc(C(C)N3CCN(c4ccc(C(=O)NC)nc4)CC3)cc2[nH]c1=O` (stereo not drawn) [Compound 3], for which the IC50 was at most 10 nM.
For the molecule `CCc1nc2ccc(CN3CCN(c4ccc(C(=O)NC)nc4)CC3)nc2[nH]c1=O` [Compound 4], the concentration for half-maximal inhibition (IC50) was at most 10 nM.
Take `CCc1cc2ncc(CN3CCN(c4ccc(C(=O)NC5CCC5)nc4)CC3)cc2[nH]c1=O` [Compound 6]: the IC50 was over 50 nM.
The same measure, in the same setting: as for `CCc1cc2ncc(CN3CCN(c4ccc(C(=O)NC5CC5)nc4F)CC3)cc2[nH]c1=O` [Compound 7], the figure is 10 to 50 nM; as for `CCc1cc2ncc(CN3CCN(c4ccc(C(=O)NC5CC5)nc4C)CC3)cc2[nH]c1=O` [Compound 8], 10 to 50 nM.
The same measure, in the same setting: under `CCc1cc2ncc(CN3CCN(c4ccc(C(=O)NC5CC5)nc4C(F)F)CC3)cc2[nH]c1=O` [Compound 9] stands 10 to 50 nM; under `CCc1cc2ncc(C(C)N3CCN(c4ccc(C(=O)NC5CC5)nc4)CC3)cc2[nH]c1=O` (stereo not drawn) [Compound 10], 10 to 50 nM; under `CCc1cc2ncc(CN3CCN(c4ccc(C(=O)NC5CC5F)nc4)CC3)cc2[nH]c1=O` (stereo not drawn) [Compound 11], at most 10 nM.
As to `CCc1cc2ncc(CN3CCN(c4ccc(C(=O)NC5CC(F)C5)nc4)CC3)cc2[nH]c1=O` (stereo not drawn) [Compound 12], the 50% inhibitory concentration (IC50) was at most 10 nM.
As for `CCc1cc2ncc(CN3CCN(c4ccc(C(=O)NC5CC(F)(F)C5)nc4)CC3)cc2[nH]c1=O` [Compound 13], the IC50 is at most 10 nM.
The same measure, in the same setting: under `CCc1nc2ccc(CN3CCN(c4ccc(C(=O)NC5CC5)nc4)CC3)cc2[nH]c1=O` [Compound 14] stands at most 10 nM; under `CCc1nc2ccc(CN3CCN(c4ccc(C(=O)NC5CCC5)nc4)CC3)cc2[nH]c1=O` [Compound 15], at most 10 nM.
The same measure, in the same setting: under `O=C(NC1CC1)c1ccc(N2CCN(Cc3ccc4nc(CCF)c(=O)[nH]c4c3)CC2)cn1` [Compound 16] stands at most 10 nM; under `O=C(NC1CC1)c1ccc(N2CCN(Cc3ccc4nc(CC(F)F)c(=O)[nH]c4c3)CC2)cn1` [Compound 17], at most 10 nM.
Turning to `CCc1nc2ccc(CN3CCN(c4ccc(C(=O)NC5CC5)nc4F)CC3)cc2[nH]c1=O` [Compound 18], the IC50 is at most 10 nM.
For the molecule `CCc1nc2ccc(C(C)N3CCN(c4ccc(C(=O)NC5CC5)nc4)CC3)cc2[nH]c1=O` (stereo not drawn) [Compound 19], the IC50 was at most 10 nM.
On the same count and under the same terms, under `CCc1nc2ccc(CN3CCN(c4ccc(C(=O)NC5CC(F)C5)nc4)CC3)cc2[nH]c1=O` (stereo not drawn) [Compound 21] stands at most 10 nM.
Same read-out and setting: as for `CCc1nc2ccc(CN3CCN(c4ccc(C(=O)NC5CC(F)(F)C5)nc4)CC3)cc2[nH]c1=O` [Compound 22], the figure is at most 10 nM.
Still for that read-out and setting: under `CCc1nc(C(=O)NC2CC2)ccc1N1CCN(Cc2ccc3nc(CC)c(=O)[nH]c3c2)CC1` [Compound 23] stands at most 10 nM; under `CCc1nc2ccc(CN3CCN(c4ccc(C(=O)NC5CC5)nc4C(F)F)CC3)cc2[nH]c1=O` [Compound 24], at most 10 nM; under `CCc1nc2ccc(CN3CCN(c4ccc(C(=O)NC5CC5)nc4C)CC3)cc2[nH]c1=O` [Compound 25], at most 10 nM.
As for `CCc1nc2ncc(CN3CCN(c4ccc(C(=O)NC5CC5)nc4)CC3)cc2[nH]c1=O` [Compound 26], the IC50 is at most 10 nM.
In the case of `CCc1nc2ncc(CN3CCN(c4ccc(C(=O)NC5CC5)nc4F)CC3)cc2[nH]c1=O` [Compound 27], the IC50 was in the range of 10 to 50 nM.
Still for that read-out and setting: under `CCc1nc2ncc(CN3CCN(c4ccc(C(=O)NC5CC5)nc4C(F)F)CC3)cc2[nH]c1=O` [Compound 28] stands 10 to 50 nM.
With `CCc1cc2ncc(CN3CCN(c4cnc(C(=O)NC)cn4)CC3)cc2[nH]c1=O` [Compound 29], the IC50 was 10 to 50 nM.
On the same count and under the same terms, as for `CCc1cc2ncc(CN3CCN(c4ccc(C(=O)NC)nn4)CC3)cc2[nH]c1=O` [Compound 30], the figure is 10 to 50 nM; as for `CCc1cc2ncc(CN3CCN(c4cnc(C(=O)NC5CC5)cn4)CC3)cc2[nH]c1=O` [Compound 31], 10 to 50 nM.
On the same count and under the same terms, as for `CCc1cc2ncc(CN3CCN(c4cnc(C(=O)NC5CC5)nc4)CC3)cc2[nH]c1=O` [Compound 32], the figure is 10 to 50 nM; as for `CCc1cc2ncc(CN3CCN(c4ccc(C(=O)NC5CC5)nn4)CC3)cc2[nH]c1=O` [Compound 33], at most 10 nM; as for `CCc1cc2ncc(CN3CCN(c4cnc(C(=O)NC5CC5)nc4C(F)F)CC3)cc2[nH]c1=O` [Compound 34], at most 10 nM.
Same read-out and setting: under `CCc1cc2ncc(C(C)N3CCN(c4cnc(C(=O)NC5CC5)nc4)CC3)cc2[nH]c1=O` (stereo not drawn) [Compound 35] stands at most 10 nM.
As to `CCc1cc2ncc(CN3CCN(c4cnc(C(=O)NC5CC5)nc4F)CC3)cc2[nH]c1=O` [Compound 36], the IC50 was at most 10 nM.
Turning to `CCc1cc2ncc(CN3CCN(c4ccc(C(=O)NC5CC5F)nn4)CC3)cc2[nH]c1=O` (stereo not drawn) [Compound 37], the IC50 fell in the range of 10 to 50 nM.
Regarding `CCc1cc2ncc(CN3CCN(c4cnc(C(=O)NC5CC(F)C5)cn4)CC3)cc2[nH]c1=O` (stereo not drawn) [Compound 38], the IC50 is 10 to 50 nM.
As to `CCc1cc2ncc(CN3CCN(c4cnc(C(=O)NC5CC(F)(F)C5)nc4)CC3)cc2[nH]c1=O` [Compound 39], the IC50 fell in the range of 10 to 50 nM.
Regarding `CCc1nc(C(=O)NC)ccc1N1CCN(C(C)c2cnc3cc(CC)c(=O)[nH]c3c2)CC1` (stereo not drawn) [Compound 40], the IC50 lay in the range of 10 to 50 nM.
On the same count and under the same terms, as for `CCc1cc2ncc(C(C)N3CCN(c4ccc(C(=O)NC)nc4F)CC3)cc2[nH]c1=O` (stereo not drawn) [Compound 41], the figure is 10 to 50 nM; as for `CCc1cc2ncc(C(C)N3CCN(c4ccc(C(=O)NC5CC5)nc4)CC3)cc2[nH]c1=O` (stereo not drawn) [Compound 42], 10 to 50 nM.
Turning to `CCc1cc2ncc(C(C)N3CCN(c4ccc(C(=O)NC)nc4C(F)F)CC3)cc2[nH]c1=O` (stereo not drawn) [Compound 43], the IC50 was at most 10 nM.
Still for that read-out and setting: as for `CCc1cc2ncc(CN3CCN(c4ccc(C(=O)NC)nc4)CC3)nc2[nH]c1=O` [Compound 44], the figure is at most 10 nM; as for `CCc1cc2ccc(CN3CCN(c4ccc(C(=O)NC)nc4)CC3)nc2[nH]c1=O` [Compound 45], at most 10 nM.
Consider `CCc1nc2ccc(CN3CCN(c4ccc(C(=O)NC5CC5)nc4)CC3)nc2[nH]c1=O` [Compound 46], for which the IC50 was at most 10 nM.
On the same count and under the same terms, as for `CCc1nc2ccc(CN3CCN(c4ccc(C(=O)NC)nc4C)CC3)nc2[nH]c1=O` [Compound 47], the figure is at most 10 nM; as for `CCc1nc2ccc(CN3CCN(c4ccc(C(=O)NC)nc4F)CC3)nc2[nH]c1=O` [Compound 48], at most 10 nM; as for `CCc1cc2ncc(CN3CCN(c4ccc(C(=O)NC5CC5)nc4)CC3)nc2[nH]c1=O` [Compound 49], at most 10 nM.
The same measure, in the same setting: under `CCc1cc2ncc(CN3CCN(c4ccc(C(=O)NC)nc4C(F)F)CC3)nc2[nH]c1=O` [Compound 50] stands at most 10 nM.
Same read-out and setting: as for `CCc1cc2ncc(CN3CCN(c4ccc(C(=O)NC)nc4F)CC3)nc2[nH]c1=O` [Compound 51], the figure is 10 to 50 nM; as for `CCc1cc2ccc(CN3CCN(c4ccc(C(=O)NC5CC5)nc4)CC3)nc2[nH]c1=O` [Compound 52], 10 to 50 nM.
In the case of `CCc1cc2ccc(CN3CCN(c4ccc(C(=O)NC)nc4C(F)F)CC3)nc2[nH]c1=O` [Compound 53], the IC50 fell in the range of 10 to 50 nM.
The same measure, in the same setting: under `CCc1cc2ccc(CN3CCN(c4ccc(C(=O)NC)nc4F)CC3)nc2[nH]c1=O` [Compound 54] stands at most 10 nM; under `CCC1Oc2ncc(CN3CCN(c4ccc(C(=O)NC5CC5)nc4)CC3)cc2NC1=O` (stereo not drawn) [Compound 55], 10 to 50 nM; under `CCC1Oc2ncc(CN3CCN(c4ccc(C(=O)NC)nc4F)CC3)cc2NC1=O` (stereo not drawn) [Compound 56], at most 10 nM.
On the same count and under the same terms, under `CCC1Nc2ncc(CN3CCN(c4ccc(C(=O)NC)nc4)CC3)cc2NC1=O` (stereo not drawn) [Compound 57] stands at most 10 nM; under `CCC1C(=O)Nc2cc(CN3CCN(c4ccc(C(=O)NC)nc4)CC3)cnc2N1C` (stereo not drawn) [Compound 58], at most 10 nM; under `CCC1C(=O)Nc2cc(CN3CCN(c4ccc(C(=O)NC5CC5)nc4)CC3)cnc2N1C` (stereo not drawn) [Compound 59], 10 to 50 nM.
Same read-out and setting: as for `CCC1Cc2ncc(CN3CCN(c4ccc(C(=O)NC5CC5)nc4)CC3)cc2NC1=O` (stereo not drawn) [Compound 60], the figure is 10 to 50 nM; as for `CCC1C(=O)Nc2cc(CN3CCN(c4ccc(C(=O)NC)nc4F)CC3)cnc2C1(C)C` (stereo not drawn) [Compound 61], at most 10 nM; as for `O=C(NC1CC1)c1ccc(N2CCN(Cc3cnc4cc(C5CC5)c(=O)[nH]c4c3)CC2)cn1` [Compound 62], 10 to 50 nM.
For `O=C(NC1CC1)c1ccc(N2CCN(Cc3ccc4nc(C5CC5)c(=O)[nH]c4c3)CC2)cn1` [Compound 63], the IC50 is at most 10 nM.
Regarding `O=C(NC1CC1)c1ccc(N2CCN(Cc3cnc4nc(C5CC5)c(=O)[nH]c4c3)CC2)cn1` [Compound 64], the IC50 was at most 10 nM.
Turning to `CNC(=O)c1cnc(N2CCN(Cc3cnc4cc(C5CC5)c(=O)[nH]c4c3)CC2)cn1` [Compound 65], the IC50 lay in the range of 10 to 50 nM.
On the same count and under the same terms, as for `CNC(=O)c1ncc(N2CCN(Cc3cnc4cc(C5CC5)c(=O)[nH]c4c3)CC2)cn1` [Compound 66], the figure is 10 to 50 nM.
Same read-out and setting: as for `CNC(=O)c1ccc(N2CCN(Cc3cnc4cc(C5CC5)c(=O)[nH]c4c3)CC2)nn1` [Compound 67], the figure is at most 10 nM; as for `CNC(=O)c1ccc(N2CCN(C(C)c3cnc4cc(C5CC5)c(=O)[nH]c4c3)CC2)cn1` (stereo not drawn) [Compound 68], at most 10 nM.

Staying with this experiment, now noted: numeric values; read-out: Inhibitory activity against PARP-1 (IC50).
For `CCC1Oc2ncc(CN3CCN(c4ccc(C(=O)NC)nc4)CC3)cc2NC1=O` (stereo not drawn) [Compound 5], the IC50 is 1.7 nM.
